Assay results: US20130171067A1, “[…]-99m COMPLEX AS A TOOL FOR THE IN VIVO DIAGNOSIS OF CANCEROUS TUMOURS” (PIERRE FABRE MEDICAMENT, priority 2010, published 2013)
Where a name gives a salt, the structure may show the parent alone.

What was measured:
B16 cells = experiment: In vitro incorporation in cells with spermine competition (gamma counter); format: cell-based, mouse; details: 30 minutes incubation, 0.2 μM complex, increasing concentration of spermine, FIG. 1
Experimental: (§1) A549 and B16 cells were placed in culture in 24-well plates (2.10^5 cells/well). After 24 hours, the cells were incubated for 30 minutes with the complex having formula (II) at various concentrations or with 0.2 μM of complex having formula (II) optionally in the presence of an increasing concentration of spermine used for evaluating competition with the probe. After incubation, the plates were placed on ice and the cells were rinsed with cold 0.9% NaCl supplemented with 1 mM of spermidine. The cells received a treatment with trypsin. They were suspended in PBS. The activity of each well was measured using a gamma counter.

[1] = Biodistribution in healthy mice; details: C57BL/6 mice, intravenous, 30 min to 24 hours post-injection
[2] = mouse, in vivo
[3] = system: B16/F10 mouse melanoma cells; experiment: Tumour fixation, full-body scintigraphy of mice grafted with B16/F10 tumours (tumour-to-muscle ratio, spermine competition); format: in vivo; details: protocol of example 30, 1)
Experimental: 10 days post-grafting, the radiolabelled probe was injected into the mice. Imaging was performed according to the protocol described in example 24 above.
B16/F10 mouse melanoma cells (2.5.10^5 cells) were injected subcutaneously in the right back paw of male C57BL/6 mice. 10 days post-grafting, the complex having formula (II) (14.8 MBq) was injected into 18 mice, 400 μg of spermine having been previously injected into 8 of these mice. Full-body scintigraphic images were then produced 30 min and 2 hours post-injection. For this, the mice, anaesthetised with isoflurane gas, were imaged in the ventral decubitus position on a gamma-camera (γ Imager, BIOSPACE Mesures) with IRIS software (Ariès Nucléaire, France) with the following parameters: • Spectral window: 121-164 KeV • Acquisition time: 3 min • Grid: 256*256
For all the images, a region of interest was plotted around the tumour and another of the same size was defined on the muscle of the contralateral paw to determine the tumour-to-muscle ratio.
The study was conducted according to the protocol described in example 30, 1) above with other complexes having formula (II).

[4] = Plasmatic stability after intravenous injection (radio-HPLC of serum); format: in vivo, mice
Experimental: 14.8 MBq of complex having formula (II) were injected intravenously to healthy male C57BL/6 mice. 30 minutes, 1 h, 2 h, 3 h and 5 hours post-injection, blood samples on heparin were taken from the retro-orbital cavity. These samples were then centrifuged for 5 minutes to collect at least 100 μL of serum. 50 enabled exclusion-diffusion radio-HPLC on a TSK SW2000 column+7.8*300 mm 5μ pre-column (Tosoh bioscience) with a mobile phase (flow rate of 1. ml/min at ambient temperature) consisting of 0.9% NaCl (100%). Macaque albumin labelled with ^99mTc was used to test the albumin retention time. The remaining 50 μL of serum was used to perform reverse-phase radio-HPLC, after protein denaturation with acetonitrile, on an XBridge C8 4.6*250 mm 5μ column (Waters, USA) with a mobile phase (flow rate of 1 ml/min at ambient temperature) consisting of water (55%), acetonitrile (45%) and TFA (0.1%).

A549 cells = experiment: In vitro incorporation in cells with spermine competition (gamma counter); format: cell-based; details: 30 minutes incubation, 0.2 μM complex, increasing concentration of spermine, FIG. 1
Experimental: as §1

**Q.** Which “Effect of spermine on incorporation of the complex” value (B16 cells) does the source give for `NCCCNCCCCNCCCNC(=O)c1ccc(N[NH][Tc]234([O]CC(CO)(CO)[N]2CC(=O)[O]3)[O]C(=O)C[N]4C(CO)(CO)CO)nc1` here?
**A.** Its value is “partially inhibits”.

**Q.** What about the Distribution in organs [1] of the same molecule?
**A.** Its Distribution in organs is “distributed quasi-homogeneously throughout the organs”.

**Q.** And the Persistence of fixation [1]?
**A.** The Persistence of fixation was “only persists in the liver and kidneys”.

**Q.** And the “Risk of renal toxicity or side-effects due to dosimetry” value [2]?
**A.** The value was “no risk of renal toxicity or side-effects due to dosimetry”.

**Q.** What about the Observations ([3]; B16/F10 tumour in C57BL/6 mice) of the same molecule?
**A.** The Observations was “Tumour fixation”.

**Q.** What about the “Proportion of injected complex eliminated” value ([4]; at 30 minutes after intravenous injection, healthy male C57BL/6 mice) of the same molecule?
**A.** The value was 38%.

**Q.** And the “Trans-chelation of Technetium on plasma albumin” value ([4]; from 30 minutes after intravenous injection, exclusion-diffusion radio-HPLC)?
**A.** Its value is “trans-chelated on the plasma albumin”.

**Q.** What about the “Complex stability in plasma” value ([4]; reverse-phase radio-HPLC of serum, 30 minutes to 5 hours post-injection) of the same molecule?
**A.** Its value is “good complex stability”.

**Q.** What about the “Effect of spermine on incorporation of the complex” value (A549 cells) of the same molecule?
**A.** The value was “partially inhibits”.

**Q.** Which “Tumour-to-muscle ratio compared with the other compounds” value [3] does the source give for `NCCCCNC(=O)c1ccc(NN)nc1` [Example 3, N-(4-Amino-butyl)-6-hydrazino-nicotinamide] here?
**A.** The value was “lower than with the other compounds”.

**Q.** With `NCCCCNCCCNC(=O)c1ccc(NN)nc1` [Example 6, N-[3-(4-amino-butylamino)-propyl]-6-hydrazino-nicotinamide] as the molecule, how does the “Tumour-to-muscle ratio compared with the other compounds” value [3] read?
**A.** The value was “lower than with the other compounds”.

**Q.** With `NCCCCNCCCNC(=O)c1ccc(NN)nc1` (as salt: hydrochloride) [Example 6, N-[3-(4-amino-butylamino)-propyl]-6-hydrazino-nicotinamide] as the molecule, how does the melting point read?
**A.** The melting point was 183 °C.

**Q.** With `NCCCNCCCCNCCCNC(=O)c1ccc(NNC(=O)C(F)(F)F)nc1` (as salt: hydrochloride) [Example 14, N-{3-[4-(3-amino-propylamino)-butylamino]-propyl}-6-[N′-(2,2,2-trifluoro-acetyl)-hydrazino]-nicotinamide] as the molecule, how does the melting point read?
**A.** Its melting point is 237.5 °C.
